From patent publication EP1953147A1, “HETEROCYCLIC COMPOUND AND MEDICINAL APPLICATION THEREOF” (priority 2005, dated 2007) come the findings set out here.

The experiment deals with ΔG/SEAP/HCV E1E2. Nature of the experiment: Effect of test substance on cell infection with HCV pseudotype virus (SEAP reporter assay in HepG2 cells). The experiment is classed as cell-based. As to conditions: Hepatitis C virus. For orientation: A reporter such as luciferase makes a cellular process visible.
In general, IC50 refers to the concentration that inhibits the measured activity by half. `COc1cc(OC)cc(-c2nn(-c3cc(OCCCO)ccc3C(F)(F)F)c(=O)c3c2CCC3)c1` [Example 1-13, 4-(3,5-dimethoxy-phenyl)-2-[5-(3-hydroxy-propoxy)-2-trifluoromethyl-phenyl]-2,5,6,7-tetrahydro-cyclopenta[d]pyridazin-1-one]: the IC50 is less than 100 nM.

The compound `COc1cc(OC)cc(-c2nn(-c3cc(NCC(N)=O)ccc3C(F)(F)F)c(=O)c3c2CCC3)c1` [Example 123, 2-{3-[4-(3,5-dimethoxy-phenyl)-1-oxo-1,5,6,7-tetrahydro-cyclopenta[d]pyridazin-2-yl]-4-trifluoromethyl-phenylamino}-acetamide] displayed a concentration for half-maximal inhibition (IC50) of less than 100 nM.

In turn, `CC(=O)N[C@@H]1CCN(c2ccc(C(F)(F)F)c(-n3nc(-c4cc(C)cc(C)c4)c4c(c3=O)N(CC(N)=O)CC4)c2)C1` [Example 1-27, {6-[5-((R)-3-acetylamino-pyrrolidin-1-yl)-2-trifluoromethyl-phenyl]-4-(3,5-dimethyl-phenyl)-7-oxo-2,3,6,7-tetrahydro-pyrrolo[2,3-d]pyridazin-1-yl}-acetamide] yielded an IC50 of less than 100 nM.

As for `COc1cc(OC)cc(-c2nn(-c3cc(N4CC[C@H](O)C4)ccc3C(F)(F)F)c(=O)c3c2CCN3CC(=O)NCCNC(C)=O)c1` [Example 39, N-(2-acetylamino-ethyl)-2-{4-(3,5-dimethoxy-phenyl)-6-[5-((S)-3-hydroxy-pyrrolidin-1-yl)-2-trifluoromethyl-phenyl]-7-oxo-2,3,6,7-tetrahydro-pyrrolo[2,3-d]pyridazin-1-yl}-acetamide], the IC50 is less than 100 nM.

In turn, `O=c1c2c(c(-c3ccccc3F)nn1-c1cc(N3CC[C@H](O)C3)ccc1C(F)(F)F)CCC2` [Example 105, 4-(2-fluoro-phenyl)-2-[5-((S)-3-hydroxy-pyrrolidin-1-yl)-2-trifluoromethyl-phenyl]-2,5,6,7-tetrahydro-cyclopenta[d]pyridazin-1-one] yielded an IC50 of 100 to 10000 nM.

The compound `COc1cc(OC)cc(-c2nn(-c3cc(NCCC(=O)OC(C)(C)C)ccc3C(F)(F)F)c(=O)c3c2CCC3)c1` [Example 115, 3-{3-[4-(3,5-dimethoxy-phenyl)-1-oxo-1,5,6,7-tetrahydro-cyclopenta[d]pyridazin-2-yl]-4-trifluoromethyl-phenylamino}-propionic acid tert-butyl ester] gave an IC50 of less than 100 nM.

As for `COc1cc(OC)cc(-c2nn(-c3cc(OCCO)ccc3C(F)(F)F)c(=O)c3c2CCC3)c1` [Example 63, 4-(3,5-dimethoxy-phenyl)-2-[5-(2-hydroxy-ethoxy)-2-trifluoromethyl-phenyl]-2,5,6,7-tetrahydro-cyclopenta[d]pyridazin-1-one], the IC50 was less than 100 nM.

`Cc1cc(-c2nn(-c3cc(N4CC(CO)C4)ccc3C(F)(F)F)c(=O)c3c2CCN3CCO)ccc1F` [Example 1-23, 4-(4-fluoro-3-methyl-phenyl)-1-(2-hydroxy-ethyl)-6-[5-(3-hydroxymethyl-azetidin-1-yl)-2-trifluoromethylphenyl]-1,2,3,6-tetrahydro-pyrrolo[2,3-d]pyridazin-7-one]: the IC50 is less than 100 nM.

Turning to `Cc1cc(-c2cnco2)cc(-c2nn(-c3cc(N4CC[C@H](O)C4)ccc3C(F)(F)F)c(=O)c3c2CCCN3)c1` [Example 1-38, 7-[5-((S)-3-hydroxy-pyrrolidin-1-yl)-2-trifluoromethylphenyl]-5-[3-methyl-5-(oxazol-5-yl)-phenyl]-1,3,4,7-tetrahydro-2H-pyrido[2,3-d]pyridazin-8-one], the IC50 is less than 100 nM.

Turning to `O=c1c2c(c(-c3cccnc3)nn1-c1cc(N3CC[C@H](O)C3)ccc1C(F)(F)F)CCC2` [Example 103, 2-[5-((S)-3-hydroxy-pyrrolidin-1-yl)-2-trifluoromethyl-phenyl]-4-pyridin-3-yl-2,5,6,7-tetrahydro-cyclopenta[d]pyridazin-1-one], the 50% inhibitory concentration (IC50) lay within 100 to 10000 nM.

For the compound `CCNC(=O)CN1CCc2c(-c3cc(OC)cc(OC)c3)nn(-c3cc(N4CC[C@H](O)C4)ccc3C(F)(F)F)c(=O)c21` [Example 33, 2-{4-(3,5-dimethoxy-phenyl)-6-[5-((S)-3-hydroxy-pyrrolidin-1-yl)-2-trifluoromethyl-phenyl]-7-oxo-2,3,6,7-tetrahydro-pyrrolo[2,3-d]pyridazin-1-yl}-N-ethyl-acetamide], the half-inhibitory concentration (IC50) is less than 100 nM.

In the case of `CCNc1ccc(C(F)(F)F)c(-n2nc(-c3cc(OC)cc(OC)c3)c3c(c2=O)CCC3)c1` [Example 67, 4-(3,5-dimethoxy-phenyl)-2-(5-ethylamino-2-trifluoromethyl-phenyl)-2,5,6,7-tetrahydro-cyclopenta[d]pyridazin-1-one], the IC50 is less than 100 nM.

For the compound `COc1cc(OC)cc(-c2nn(-c3cc(NCCC4CC4)ccc3C(F)(F)F)c(=O)c3c2CCC3)c1` [Example 147, 2-[5-(2-cyclopropyl-ethylamino)-2-trifluoromethyl-phenyl]-4-(3,5-dimethoxy-phenyl)-2,5,6,7-tetrahydro-cyclopenta[d]pyridazin-1-one], the 50% inhibitory concentration (IC50) was less than 100 nM.

In turn, `COc1cc(OC)cc(-c2nn(-c3cc(N4CC[C@H](O)C4)ccc3C(F)(F)F)c(=O)c3c2CCN3CC(=O)NCCCCCCNC(C)=O)c1` [Example 40, N-(6-acetylamino-hexyl)-2-{4-(3,5-dimethoxy-phenyl)-6-[5-((S)-3-hydroxy-pyrrolidin-1-yl)-2-trifluoromethyl-phenyl]-7-oxo-2,3,6,7-tetrahydro-pyrrolo[2,3-d]pyridazin-1-yl}-acetamide] yielded an IC50 of less than 100 nM.

The compound `COc1cc(OC)cc(-c2nn(-c3cc(F)ccc3C(F)(F)F)c(=O)c3c2CCN3)c1` [Example 50, 4-(3,5-dimethoxy-phenyl)-6-(5-fluoro-2-trifluoromethyl-phenyl)-1,2,3,6-tetrahydro-pyrrolo[2,3-d]pyridazin-7-one] had an IC50 of 100 to 10000 nM.

On to `COc1cc(OC)cc(-c2nn(-c3cc(C(=O)O)ccc3C(F)(F)F)c(=O)c3c2CCC3)c1` [Example 1-10, 3-[4-(3,5-dimethoxy-phenyl)-1-oxo-1,5,6,7-tetrahydro-cyclopenta[d]pyridazin-2-yl]-4-trifluoromethyl-benzoic acid], for which the IC50 is 100 to 10000 nM.

Regarding `CCCCCC(=O)NCCNC(=O)CN1CCc2c(-c3cc(OC)cc(OC)c3)nn(-c3cc(N4CC[C@H](O)C4)ccc3C(F)(F)F)c(=O)c21` [Example 46, hexanoic acid [2-(2-{4-(3,5-dimethoxy-phenyl)-6-[5-((S)-3-hydroxy-pyrrolidin-1-yl)-2-trifluoromethylphenyl]-7-oxo-2,3,6,7-tetrahydro-pyrrolo[2,3-d]pyridazin-1-yl}-acetylamino)-ethyl]-amide], the IC50 is less than 100 nM.

On to `COc1cc(OC)cc(-c2nn(-c3cc(NCC(=O)O)ccc3C(F)(F)F)c(=O)c3c2CCC3)c1` [Example 97, {3-[4-(3,5-dimethoxy-phenyl)-1-oxo-1,5,6,7-tetrahydro-cyclopenta[d]pyridazin-2-yl]-4-trifluoromethyl-phenylamino}-acetic acid], for which the IC50 is less than 100 nM.

As to `CC(C)Cc1nn(-c2cc(N3CC[C@H](O)C3)ccc2C(F)(F)F)c(=O)c2c1CCC2` [Example 144, 2-[5-((S)-3-hydroxy-pyrrolidin-1-yl)-2-trifluoromethyl-phenyl]-4-isobutyl-2,5,6,7-tetrahydro-cyclopenta[d]pyridazin-1-one], the IC50 was in the range of 100 to 10000 nM.

Compound `COc1cncc(-c2nn(-c3cc(N4CC[C@H](O)C4)ccc3C(F)(F)F)c(=O)c3c2CCN3C(N)=O)c1` [Example 1-29, 6-[5-((S)-3-hydroxy-pyrrolidin-1-yl)-2-trifluoromethylphenyl]-4-(5-methoxy-pyridin-3-yl)-7-oxo-2,3,6,7-tetrahydro-pyrrolo[2,3-d]pyridazine-1-carboxamide] displayed an IC50 of less than 100 nM.

With `CCCC(=O)Nc1ccc(C(F)(F)F)c(-n2nc(-c3cc(OC)cc(OC)c3)c3c(c2=O)CCC3)c1` [Example 84, N-{3-[4-(3,5-dimethoxy-phenyl)-1-oxo-1,5,6,7-tetrahydro-cyclopenta[d]pyridazin-2-yl]-4-trifluoromethyl-phenyl}-butyramide], the half-maximal inhibitory concentration (IC50) was less than 100 nM.

`CN(C)c1cccc(-c2nn(-c3cc(N4CC[C@H](O)C4)ccc3C(F)(F)F)c(=O)c3c2CCC3)c1` [Example 85, 4-(3-dimethylamino-phenyl)-2-[5-((S)-3-hydroxy-pyrrolidin-1-yl)-2-trifluoromethyl-phenyl]-2,5,6,7-tetrahydro-cyclopenta[d]pyridazin-1-one] showed an IC50 of less than 100 nM.

In the case of `COc1cc(OC)cc(-c2nn(-c3cc(N)ccc3C(F)(F)F)c(=O)c3c2CCN3CCO)c1` [Example 1-41, 6-(5-amino-2-trifluoromethyl-phenyl)-4-(3,5-dimethoxy-phenyl)-1-(2-hydroxy-ethyl)-1,2,3,6-tetrahydro-pyrrolo[2,3-d]pyridazin-7-one], the IC50 was less than 100 nM.

Take `COc1cc(OC)cc(-c2nn(-c3cc(N(C)CCO)ccc3C(F)(F)F)c(=O)c3c2CCC3)c1` [Example 92, 4-(3,5-dimethoxy-phenyl)-2-{5-[(2-hydroxy-ethyl)-methyl-amino]-2-trifluoromethyl-phenyl}-2,5,6,7-tetrahydro-cyclopenta[d]pyridazin-1-one]: the IC50 was less than 100 nM.

`O=C(O)c1cccc(-c2nn(-c3cc(N4CC[C@H](O)C4)ccc3C(F)(F)F)c(=O)c3c2CCC3)c1` [Example 79, 3-{3-[5-((S)-3-hydroxy-pyrrolidin-1-yl)-2-trifluoromethyl-phenyl]-4-oxo-4,5,6,7-tetrahydro-3H-cyclopenta[d]pyridazin-1-yl}-benzoic acid] registered an IC50 of 100 to 10000 nM.

The compound `Cc1cc(-c2cnco2)cc(-c2nn(-c3cc(-c4cccnn4)ccc3C(F)(F)F)c(=O)c3c2CC(C)N3)c1` (stereo not drawn) [Example 5, 2-methyl-4-(3-methyl-5-oxazol-5-yl-phenyl)-6-(5-pyridazin-3-yl-2-trifluoromethyl-phenyl)-1,2,3,6-tetrahydro-pyrrolo[2,3-d]pyridazin-7-one] came in with an IC50 of less than 100 nM.

In turn, `COc1ccc(-c2nn(-c3cc(N4CC[C@H](O)C4)ccc3C(F)(F)F)c(=O)c3c2CCC3)cc1` [Example 77, 2-[5-((S)-3-hydroxy-pyrrolidin-1-yl)-2-trifluoromethyl-phenyl]-4-(4-methoxy-phenyl)-2,5,6,7-tetrahydro-cyclopenta[d]pyridazin-1-one] came in with an IC50 of less than 100 nM.
